From paper PMC11822212, “High-throughput screening identifies Aurora kinase B as a critical therapeutic target for Merkel cell carcinoma” (Nature Communications, 2025)
Counter-ions that a name gives are not always drawn.

Assays:
NIH-3T3 cells = assay: qHTS cell viability (CellTiter-Glo, 72 h; primary screen), control cell line; type: cell-based, mouse
MCC26 cells (VN-MCC) = assay: qHTS cell viability (CellTiter-Glo, 72 h; primary and follow-up small molecule screen); type: cell-based, human; conditions: for Area under the dose-response curve (AUC) MCC26 Replicate 1 / Area under the dose-response curve (AUC) MCC26 Replicate 2 / Area under the dose-response curve (AUC) MCC26 Replicate 3: follow-up screen
WAGA cells (VP-MCC) = assay: as above; type: cell-based, human; conditions: for Area under the dose-response curve (AUC) WAGA Replicate 1 / Area under the dose-response curve (AUC) WAGA Replicate 2 / Area under the dose-response curve (AUC) WAGA Replicate 3: follow-up screen
MKL-1 cells (VP-MCC) = assay: as above; type: cell-based, human; conditions: for Area under the dose-response curve (AUC) MKL-1 Replicate 1 / Area under the dose-response curve (AUC) MKL-1 Replicate 2 / Area under the dose-response curve (AUC) MKL-1 Replicate 3: follow-up screen
UISO cells (VN-MCC) = assay: as above; type: cell-based, human; conditions: for Area under the dose-response curve (AUC) UISO Replicate 1 / Area under the dose-response curve (AUC) UISO Replicate 2 / Area under the dose-response curve (AUC) UISO Replicate 3: follow-up screen
MCC13 cells (VN-MCC) = assay: as above; type: cell-based, human; conditions: for Area under the dose-response curve (AUC) MCC13 Replicate 1 / Area under the dose-response curve (AUC) MCC13 Replicate 2 / Area under the dose-response curve (AUC) MCC13 Replicate 3: follow-up screen
MKL-2 cells (VP-MCC) = assay: as above; type: cell-based, human; conditions: for Area under the dose-response curve (AUC) MKL-2 Replicate 1 / Area under the dose-response curve (AUC) MKL-2 Replicate 2 / Area under the dose-response curve (AUC) MKL-2 Replicate 3: follow-up screen
CRL-7250 cells = assay: qHTS cell viability (CellTiter-Glo, 72 h; primary screen), control cell line; type: cell-based
[1] = tested on: MCC cell lines (WAGA, MKL-1, MKL-2, MCC13, MCC26, UISO); assay: qHTS cell viability, all six MCC cell lines as a group (mean AUC, MCC.avg); type: cell-based, human
[2] = tested on: VP-MCC cell lines (WAGA, MKL-1, MKL-2); assay: qHTS cell viability, VP-MCC cell lines as a group (mean AUC, VP.MCC.avg); type: cell-based, human; conditions: for VP-MCC_Avg_AUC: mean AUC of VP-MCC cell lines
[3] = tested on: control cell lines (HACAT, HEK293T, CRL-7250, NIH-3T3); assay: qHTS cell viability, control cell lines as a group (mean AUC, Control.avg); type: cell-based; conditions: mean AUC of control cell lines
HEK293T cells = assay: qHTS cell viability (CellTiter-Glo, 72 h; primary screen), control cell line; type: cell-based, human
HACAT cells = assay: as above; type: cell-based, human
[4] = tested on: six MCC cell lines and four control cell lines; assay: qHTS cell viability, all 10 cell lines screened; type: cell-based; conditions: Control AUC minus MCC AUC (therapeutic window)
[5] = tested on: VN-MCC cell lines (MCC13, MCC26, UISO); assay: qHTS cell viability, VN-MCC cell lines as a group (mean AUC, VN.MCC.avg); type: cell-based, human; conditions: for VN-MCC_Avg_AUC: mean AUC of VN-MCC cell lines
[6] = NPC library, 8-point DRC, control cell line
[7] = NPC library, 8-point DRC, area under dose-response curve
[8] = MIPE library, 11-point DRC, control cell line, sheet S2E
[9] = MIPE library, 11-point DRC, sheet S2E
[10] = MIPE library, mean AUC of six MCC cell lines, sheet S2E
[11] = MIPE library, Control AUC minus VP-MCC AUC (therapeutic window), sheet S2E
[12] = MIPE library, Control AUC minus VN-MCC AUC (therapeutic window), sheet S2E

## Nc1ccc(C(=O)NCC(=O)O)cc1 [Aminohippuric acid]
NIH-3T3 cells; [6]
  NIH3T3_AUC: 454.303
NIH-3T3 cells; NPC library, qHTS dose-response AUC, NIH3T3 control
  NIH3T3_AUC: 454.303
NIH-3T3 cells; area under the dose-response curve, NIH3T3 control cells, AUC<450 = reduced viability
  NIH3T3_AUC: 454.303
MCC26 cells (VN-MCC); [7]
  MCC26_AUC: 410.554
MCC26 cells (VN-MCC); NPC library, qHTS dose-response AUC, MCC26
  MCC26_AUC: 410.554
MCC26 cells (VN-MCC); area under the dose-response curve, MCC26 cells, AUC<450 = reduced viability
  MCC26_AUC: 410.554
WAGA cells (VP-MCC); [7]
  WAGA_AUC: 448.077
WAGA cells (VP-MCC); NPC library, qHTS dose-response AUC, WAGA
  WAGA_AUC: 448.077
WAGA cells (VP-MCC); area under the dose-response curve, WAGA cells, AUC<450 = reduced viability
  WAGA_AUC: 448.077
MKL-1 cells (VP-MCC); [7]
  MKL1_AUC: 395.372
MKL-1 cells (VP-MCC); NPC library, qHTS dose-response AUC, MKL1
  MKL1_AUC: 395.372
MKL-1 cells (VP-MCC); {}
  MKL1_AUC: 395.372
UISO cells (VN-MCC); [7]
  UISO_AUC: 434.505
UISO cells (VN-MCC); NPC library, qHTS dose-response AUC, UISO
  UISO_AUC: 434.505
UISO cells (VN-MCC); area under the dose-response curve, UISO cells, AUC<450 = reduced viability
  UISO_AUC: 434.505
MCC13 cells (VN-MCC); [7]
  MCC13_AUC: 391.573
MCC13 cells (VN-MCC); NPC library, qHTS dose-response AUC, MCC13
  MCC13_AUC: 391.574
MCC13 cells (VN-MCC); area under the dose-response curve, MCC13 cells, AUC<450 = reduced viability
  MCC13_AUC: 391.574
MKL-2 cells (VP-MCC); [7]
  MKL2_AUC: 407.303
MKL-2 cells (VP-MCC); NPC library, qHTS dose-response AUC, MKL2
  MKL2_AUC: 407.303
MKL-2 cells (VP-MCC); area under the dose-response curve, MKL-2 cells, AUC<450 = reduced viability
  MKL2_AUC: 407.303
CRL-7250 cells; [6]
  CRL7250_AUC: 477.44
CRL-7250 cells; NPC library, qHTS dose-response AUC, CRL7250 control
  CRL7250_AUC: 477.44
CRL-7250 cells; area under the dose-response curve, CRL7250 control cells, AUC<450 = reduced viability
  CRL7250_AUC: 477.44
[1]; NPC library, mean AUC of all 6 MCC cell lines
  MCC_Avg_AUC: 414.564
[1]; NPC library, mean AUC of six MCC cell lines
  MCC_Avg_AUC: 414.564
[2]; Control AUC minus VP-MCC AUC
  Control-VP-MCC: 53.2142
[2]; NPC library, Control AUC minus VP-MCC AUC (therapeutic window)
  Control-VP-MCC: 53.2142
[2]; NPC library
  VP-MCC_Avg_AUC: 416.917
[3]; NPC library
  Control_Avg_AUC: 470.131
HEK293T cells; [6]
  HEK293T_AUC: 467.378
HEK293T cells; NPC library, qHTS dose-response AUC, HEK293T control
  HEK293T_AUC: 467.377
HEK293T cells; area under the dose-response curve, HEK293T control cells, AUC<450 = reduced viability
  HEK293T_AUC: 467.377
HACAT cells; [6]
  HACAT_AUC: 481.404
HACAT cells; NPC library, qHTS dose-response AUC, HACAT control
  HACAT_AUC: 481.404
HACAT cells; area under the dose-response curve, HACAT control cells, AUC<450 = reduced viability
  HACAT_AUC: 481.404
[4]; NPC library
  Control-MCC: 55.5673
[5]; Control AUC minus VN-MCC AUC
  Control-VN-MCC: 57.9205
[5]; NPC library, Control AUC minus VN-MCC AUC (therapeutic window)
  Control-VN-MCC: 57.9205
[5]; NPC library
  VN-MCC_Avg_AUC: 412.211

## O=c1cc(-c2ccc(O)cc2)oc2cc(O)cc(O)c12 [Apigenin]
NIH-3T3 cells; [8]
  NIH3T3_AUC: 470.997
MCC26 cells (VN-MCC); [9]
  MCC26_AUC: 531.61
MCC26 cells (VN-MCC); MCC26
  Area under the dose-response curve (AUC) MCC26 Replicate 1: 480.1
  Area under the dose-response curve (AUC) MCC26 Replicate 2: 461.0
  Area under the dose-response curve (AUC) MCC26 Replicate 3: 496.4
WAGA cells (VP-MCC); [9]
  WAGA_AUC: 368.999
WAGA cells (VP-MCC); WAGA
  Area under the dose-response curve (AUC) WAGA Replicate 1: 549.1
  Area under the dose-response curve (AUC) WAGA Replicate 2: 497.7
  Area under the dose-response curve (AUC) WAGA Replicate 3: 481.5
MKL-1 cells (VP-MCC); [9]
  MKL1_AUC: 377.491
MKL-1 cells (VP-MCC)
  Area under the dose-response curve (AUC) MKL-1 Replicate 1: 510.1
  Area under the dose-response curve (AUC) MKL-1 Replicate 2: 521.0
  Area under the dose-response curve (AUC) MKL-1 Replicate 3: 502.5
UISO cells (VN-MCC); [9]
  UISO_AUC: 485.478
UISO cells (VN-MCC); UISO
  Area under the dose-response curve (AUC) UISO Replicate 1: 472.2
  Area under the dose-response curve (AUC) UISO Replicate 2: 489.3
  Area under the dose-response curve (AUC) UISO Replicate 3: 503.1
MCC13 cells (VN-MCC); [9]
  MCC13_AUC: 501.623
MCC13 cells (VN-MCC); MCC13
  Area under the dose-response curve (AUC) MCC13 Replicate 1: 539.3
  Area under the dose-response curve (AUC) MCC13 Replicate 2: 539.6
  Area under the dose-response curve (AUC) MCC13 Replicate 3: 514.9
MKL-2 cells (VP-MCC); [9]
  MKL2_AUC: 357.96
MKL-2 cells (VP-MCC)
  Area under the dose-response curve (AUC) MKL-2 Replicate 1: 530.0
  Area under the dose-response curve (AUC) MKL-2 Replicate 2: 507.8
  Area under the dose-response curve (AUC) MKL-2 Replicate 3: 497.7
CRL-7250 cells; [8]
  CRL7250_AUC: 438.96
[1]; [10]
  MCC_Avg_AUC: 437.193
[2]; [11]
  Control-VP-MCC: 92.024
[2]; MIPE library, sheet S2E
  VP-MCC_Avg_AUC: 368.15
[3]; MIPE library, sheet S2E
  Control_Avg_AUC: 460.174
HEK293T cells; [8]
  HEK293T_AUC: 459.794
HACAT cells; [8]
  HACAT_AUC: 470.945
[4]; MIPE library, sheet S2E
  Control-MCC: 22.9804
[5]; [12]
  Control-VN-MCC: -46.0631
[5]; MIPE library, sheet S2E
  VN-MCC_Avg_AUC: 506.237

## CN1CCCC(n2nc(Cc3ccc(Cl)cc3)c3ccccc3c2=O)CC1 (centres unmarked) [Azelastine hydrochloride]
NIH-3T3 cells; [8]
  NIH3T3_AUC: 471.996
MCC26 cells (VN-MCC); [9]
  MCC26_AUC: 431.003
MCC26 cells (VN-MCC); MCC26
  Area under the dose-response curve (AUC) MCC26 Replicate 1: 450.4
  Area under the dose-response curve (AUC) MCC26 Replicate 2: 432.6
  Area under the dose-response curve (AUC) MCC26 Replicate 3: 475.6
WAGA cells (VP-MCC); [9]
  WAGA_AUC: 268.398
WAGA cells (VP-MCC); WAGA
  Area under the dose-response curve (AUC) WAGA Replicate 1: 515.6
  Area under the dose-response curve (AUC) WAGA Replicate 2: 481.7
  Area under the dose-response curve (AUC) WAGA Replicate 3: 478.9
MKL-1 cells (VP-MCC); [9]
  MKL1_AUC: 341.965
MKL-1 cells (VP-MCC)
  Area under the dose-response curve (AUC) MKL-1 Replicate 1: 494.5
  Area under the dose-response curve (AUC) MKL-1 Replicate 2: 511.5
  Area under the dose-response curve (AUC) MKL-1 Replicate 3: 475.2
UISO cells (VN-MCC); [9]
  UISO_AUC: 426.293
UISO cells (VN-MCC); UISO
  Area under the dose-response curve (AUC) UISO Replicate 1: 472.1
  Area under the dose-response curve (AUC) UISO Replicate 2: 488.6
  Area under the dose-response curve (AUC) UISO Replicate 3: 481.1
MCC13 cells (VN-MCC); [9]
  MCC13_AUC: 451.766
MCC13 cells (VN-MCC); MCC13
  Area under the dose-response curve (AUC) MCC13 Replicate 1: 500.3
  Area under the dose-response curve (AUC) MCC13 Replicate 2: 476.4
  Area under the dose-response curve (AUC) MCC13 Replicate 3: 479.3
MKL-2 cells (VP-MCC); [9]
  MKL2_AUC: 320.643
MKL-2 cells (VP-MCC)
  Area under the dose-response curve (AUC) MKL-2 Replicate 1: 463.4
  Area under the dose-response curve (AUC) MKL-2 Replicate 2: 469.5
  Area under the dose-response curve (AUC) MKL-2 Replicate 3: 473.5
CRL-7250 cells; [8]
  CRL7250_AUC: 443.828
[1]; [10]
  MCC_Avg_AUC: 373.345
[2]; [11]
  Control-VP-MCC: 149.127
[2]; MIPE library, sheet S2E
  VP-MCC_Avg_AUC: 310.335
[3]; MIPE library, sheet S2E
  Control_Avg_AUC: 459.462
HEK293T cells; [8]
  HEK293T_AUC: 458.798
HACAT cells; [8]
  HACAT_AUC: 463.226
[4]; MIPE library, sheet S2E
  Control-MCC: 86.1174
[5]; [12]
  Control-VN-MCC: 23.1078
[5]; MIPE library, sheet S2E
  VN-MCC_Avg_AUC: 436.354
